{"source": "patent US20170105969A1", "about": "“CENICRIVIROC FOR THE TREATMENT OF HIV-2 INFECTION” (Tobira Therapeutics, Inc., priority 2014, published 2017)", "biological_target": "T1, CCR3 (Homo sapiens, UniProt P51677)", "T1 sequence (P51677 1-355)": "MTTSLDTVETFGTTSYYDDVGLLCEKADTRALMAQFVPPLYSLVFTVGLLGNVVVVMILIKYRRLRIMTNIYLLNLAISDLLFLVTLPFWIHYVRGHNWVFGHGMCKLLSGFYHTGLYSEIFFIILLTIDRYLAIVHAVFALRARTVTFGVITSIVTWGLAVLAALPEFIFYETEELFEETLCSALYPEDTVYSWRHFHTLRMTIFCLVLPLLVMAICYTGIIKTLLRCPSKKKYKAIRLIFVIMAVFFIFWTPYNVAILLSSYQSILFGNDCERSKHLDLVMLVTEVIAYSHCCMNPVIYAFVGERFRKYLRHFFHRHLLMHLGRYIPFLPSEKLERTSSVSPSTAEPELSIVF", "assay": "Ligand binding to CCR3"}
{"smiles": "CCCCOCCOc1ccc(-c2ccc3c(c2)/C=C(/C(=O)Nc2ccc([S@@+]([O-])Cc4cncn4CCC)cc2)CCCN3CC(C)C)cc1", "note": "[CVC, (S)-8-[4-(2-Butoxyethoxy)phenyl]-1-isobutyl-N-(4-{[(1-propyl-1H-imidazol-5-yl)methyl]sulfinyl}phenyl)-1,2,3,4-tetrahydro-1-benzazocine-5-carboxamide]", "values": [{"measurement": "inhibition of ligand binding (in words)", "result": "weakly inhibited"}]}
